Data reported in PMC5566973 (Frontiers in Pharmacology, 2017).
“And” between values parts separate entries of the source, which are not always exact repeats. Equal entries are not always repeated.

Columns and labels:
MCTs [1] = experiment: in vitro; details: human, Caco-2, ER, Caco-2, 2 μM, + Phloretin 0.3 mM (MCTs)
Experimental: (§1) Caco-2, MDCK and MDCK-MRP2 cells were donated by Prof. Yan Xie and Yueming Ma from Shanghai University of Traditional Chinese Medicine. The cells were grown in culture dishes (Corning® Costar, Cambridge, MA, USA) using DMEM supplemented with 10% FBS, 1% NEAA and 1% penicillin-streptomycin solution. The cells were cultured in 5% CO2 and […] with 90% relative humidity at 37°C. The medium was replaced every other day during incubation. The cells were passaged every 3–4 days between 70 and 80% confluence at a 1:5 split ratio using 0.25% trypsin-EDTA. For the transport experiments, the cells from passages between 30 and 45 were seeded at 1 × 10^5 cells/cm^2 onto permeable polycarbonate inserts (0.45 μm pore size, seeding surface of 0.6 cm^2, Millipore, MA, USA) in 24-well plastic plates. The media in the culture plates were changed every other day for the first week after seeding and were replaced daily afterward. […] The cells were used for the transport experiments 21–28 (Caco-2) or 5–7 (MDCK and MDCK-MRP2) days after seeding, and only monolayers with a TEER-value above 420 Ω cm^2 were used during the studies.
(§2) The apical (AP) and basolateral (BL) sides are typical of polarized Caco-2, MDCK and MDCK-MRP2 epithelial cells. Before the experiments, the polarized cell monolayers were washed twice with warm HBSS solution and subsequently preincubated (37°C, 30 min). Afterward, HBSS solution on both sides of the cell monolayers was removed using a mini desktop vacuum pump. […] The final DMSO concentration in the HBSS or drug mixture was below 0.5%. The monolayers were incubated at 37°C, and 100 μL samples were taken at 30, 60, 90, and 120 min from the acceptor compartment and immediately replaced with the same volume of prewarmed fresh blank HBSS. TEER measurements for assessing the membrane integrity took place before and after the experiments.
(§3) The apparent permeability coefficients (Papp) and ER were calculated as Equations (2) and (3): […]
(§4) where dQ/dt is the steady-state flux, A is the membrane surface area, and C0 is the initial drug concentration in the donor compartment. PappBA is the Papp-value measured in BL to AP direction and PappAB is the Papp-value measured in AP to BL direction. It indicated the involvement of an active transport process when the ER-value is above 1.5 (Hubatsch et al., [2007]).

OCTs/OCTNs = experiment: in vitro; details: human, Caco-2, ER, Caco-2, 2 μM, + TEA 5 mM (OCTs/OCTNs)
Experimental: as §1, §2, §3, §4

SGLT1 = experiment: in vitro; details: human, Caco-2, ER, Caco-2, 2 μM, + Phloridzin 0.5 mM (SGLT1)
Experimental: as §1, §2, §3, §4

[2] = Bidirectional transport in MDCK cell monolayers with selective transporter inhibitors or substrates; assay type: in vitro ADME, canine; details: dog, Control (no inhibitor or substrate), read-out: ER
Experimental: as §1, §2, §3, §4

MCTs [3] = experiment: as above; assay type: in vitro ADME, canine; details: dog, with phloretin 0.3 mM, + Phloretin 0.3 mM (MCTs)
Experimental: as §1, §2, §3, §4

OATPs = experiment: as above; assay type: in vitro ADME, canine; details: dog, with ES 0.05 mM (50 μM), + ES 0.05 mM (OATPs)
Experimental: as §1, §2, §3, §4

PEPT1 = experiment: as above; assay type: in vitro ADME, canine; details: dog, with Gly-Sar 10 mM, + Gly-Sar 10 mM (PEPT1)
Experimental: as §1, §2, §3, §4

human MDR1 = biological target: T1, human MDR1 (Homo sapiens, UniProt P08183); experiment: Vesicular transport assay, Sf9 membrane vesicles expressing human MDR1; assay type: in vitro ADME; details: 1 μM, MgATP vs MgAMP
T1 construct: purchased GenoMembrane (Kanagawa, Japan); host or cells: Sf9
T1 sequence (P08183 whole entry): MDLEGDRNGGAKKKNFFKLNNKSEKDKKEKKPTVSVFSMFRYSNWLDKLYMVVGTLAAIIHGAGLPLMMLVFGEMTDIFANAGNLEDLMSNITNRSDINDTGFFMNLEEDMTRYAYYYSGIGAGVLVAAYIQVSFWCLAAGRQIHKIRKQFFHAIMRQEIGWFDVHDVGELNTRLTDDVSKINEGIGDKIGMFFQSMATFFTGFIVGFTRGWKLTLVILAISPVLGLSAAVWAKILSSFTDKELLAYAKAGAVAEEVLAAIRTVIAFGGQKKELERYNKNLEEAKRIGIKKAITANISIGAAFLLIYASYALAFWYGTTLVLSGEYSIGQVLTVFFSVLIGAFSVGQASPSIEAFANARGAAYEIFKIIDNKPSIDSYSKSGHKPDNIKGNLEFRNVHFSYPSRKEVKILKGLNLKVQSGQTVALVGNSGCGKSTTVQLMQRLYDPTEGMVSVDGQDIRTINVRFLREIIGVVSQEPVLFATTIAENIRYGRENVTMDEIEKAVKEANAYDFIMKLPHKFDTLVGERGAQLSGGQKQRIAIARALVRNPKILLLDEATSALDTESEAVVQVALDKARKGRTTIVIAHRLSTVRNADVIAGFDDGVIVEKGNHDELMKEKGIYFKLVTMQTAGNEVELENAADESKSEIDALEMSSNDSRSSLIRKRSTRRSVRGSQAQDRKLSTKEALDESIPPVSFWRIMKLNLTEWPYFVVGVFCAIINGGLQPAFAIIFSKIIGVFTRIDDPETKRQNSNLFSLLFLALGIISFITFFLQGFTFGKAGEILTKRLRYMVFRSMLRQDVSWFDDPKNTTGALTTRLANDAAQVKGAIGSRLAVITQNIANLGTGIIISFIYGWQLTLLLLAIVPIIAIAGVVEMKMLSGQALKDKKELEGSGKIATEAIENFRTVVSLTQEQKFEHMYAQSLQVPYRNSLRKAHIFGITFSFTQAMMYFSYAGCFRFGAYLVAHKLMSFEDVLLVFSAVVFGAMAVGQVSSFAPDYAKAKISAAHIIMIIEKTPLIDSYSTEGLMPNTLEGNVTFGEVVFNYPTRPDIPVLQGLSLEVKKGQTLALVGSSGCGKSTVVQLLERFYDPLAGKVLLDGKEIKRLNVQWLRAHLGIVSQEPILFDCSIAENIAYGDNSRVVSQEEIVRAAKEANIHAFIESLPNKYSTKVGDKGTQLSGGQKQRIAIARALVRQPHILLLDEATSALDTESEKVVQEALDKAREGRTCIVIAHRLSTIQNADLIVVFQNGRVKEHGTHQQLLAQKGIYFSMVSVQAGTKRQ
Experimental: The vesicular transport assay was implemented as described in the GenoMembrane™ vesicular transport kit protocol (GenoMembrane, Kanagawa, Japan) with minor changes. Briefly, vesicle stocks were thawed and diluted with assay buffer (50 mM MOPS-Tris, 70 mM KCl, and 7.5 mM MgCl2). […] MgAMP instead of MgATP was used as a control. Apart from these, 4 mM glutathione was also included in BCRP and MRP2 assays. Transport was terminated with ice cold assay buffer, and then samples were quickly transferred to a filter plate. Wells were immediately washed 5 times with 200 μL assay buffer and dried. The vesicles on the plate were dissolved in 50 μL of 80% methanol and centrifuged at 2,000 rpm for 2 min after collection, and repeating the above procedures. Mixed the two filtrates together and added the pre-cooled methanol. After centrifugation at 12,000 rpm for 5 min at 4°C, a 5 μL aliquot of supernatant was injected into the UPLC-ESI-MS/MS system for analysis. Furthermore, the uptake of NMQ (MDR1), LY (BCRP), and E217βG (MRP2) was used to evaluate the activity of specific vesicles.

[4] = design: method as in Wu et al., 2009; details: wild-type and CYP2D6-humanized mice, intraperitoneal injection, 5 or 15 mg/kg; ref Wu et al., 2009; cited from earlier work

## COc1ccc2c3c([nH]c2c1)C(C)=NCC3 [Harmaline]
MCTs [1]
  efflux ratio: 0.95
OCTs/OCTNs
  efflux ratio: 1.13
SGLT1
  efflux ratio: 0.95
[2]
  efflux ratio at 120 min, 2 μM: 1.03
MCTs [3]
  Papp B→A at 120 min, 2 μM: 23.3 ± 1.4 ×10⁻⁶ cm/s
MCTs [3]; read-out: ER
  efflux ratio at 120 min, 2 μM: 1.15
OATPs
  Papp A→B at 120 min, 2 μM: 19.4 ± 3.23 ×10⁻⁶ cm/s
OATPs; read-out: ER
  efflux ratio at 120 min, 2 μM: 1.07
PEPT1
  Papp A→B at 120 min, 2 μM: 20.9 ± 2.9 ×10⁻⁶ cm/s
  Papp B→A at 120 min, 2 μM: 21.4 ± 1.96 ×10⁻⁶ cm/s
PEPT1; read-out: ER
  efflux ratio at 120 min, 2 μM: 1.03
Human MDR1
  uptake ratio (UR): < 2.00 and 1.97
[4]
  F-values: 73.7% and 98.2% and 68.6% and 60.0%
